Experimental data as given in PubChem BioAssay (NCI).
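Values below derive from 48-hour exposures of cells grown in 96-well plates, with endpoints linearly interpolated between the two concentrations bracketing the appropriate inhibition level. GI50 is the concentration that inhibits growth by half. TGI is the concentration that stops growth completely.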

How the values were obtained:
Assay in all cases: NCI tumour cell line growth inhibition, 48 h
HCT-116 colon = tested on: HCT-116 colon
HS 578T breast = tested on: HS 578T breast
NCI-H226 lung = tested on: NCI-H226 lung
K-562 leukemia = tested on: K-562 leukemia
SR leukemia = tested on: SR leukemia
SK-MEL-5 melanoma = tested on: SK-MEL-5 melanoma
SW-620 colon = tested on: SW-620 colon
SK-MEL-2 melanoma = tested on: SK-MEL-2 melanoma
SN12C renal = tested on: SN12C renal
UACC-257 melanoma = tested on: UACC-257 melanoma
UO-31 renal = tested on: UO-31 renal
HL-60(TB) leukemia = tested on: HL-60(TB) leukemia
CAKI-1 renal = tested on: CAKI-1 renal
NCI-H460 lung = tested on: NCI-H460 lung
NCI-H23 lung = tested on: NCI-H23 lung
KM12 colon = tested on: KM12 colon
SF-268 CNS = tested on: SF-268 CNS
OVCAR-4 ovarian = tested on: OVCAR-4 ovarian
SNB-75 CNS = tested on: SNB-75 CNS
T-47D breast = tested on: T-47D breast
SNB-19 CNS = tested on: SNB-19 CNS
EKVX NSCLC = tested on: EKVX NSCLC
SK-MEL-28 melanoma = tested on: SK-MEL-28 melanoma
ACHN renal = tested on: ACHN renal
CCRF-CEM leukemia = tested on: CCRF-CEM leukemia
BT-549 breast = tested on: BT-549 breast

COc1cc(-c2ccc(-c3ccc(C(=N)N)cc3)s2)cc(OC)c1OC
GI50 (HCT-116 colon): 1.56 µM
TGI (HCT-116 colon): 3.19 µM
GI50 (HS 578T breast): 1.75 µM
TGI (HS 578T breast): 4.16 µM
GI50 (NCI-H226 lung): 2.16 µM
TGI (NCI-H226 lung): 6.58 µM
GI50 (K-562 leukemia): 2.63 µM
TGI (K-562 leukemia): 10.2 µM
GI50 (SR leukemia): 2.08 µM
TGI (SR leukemia): 5.43 µM
GI50 (SK-MEL-5 melanoma): 1.72 µM
TGI (SK-MEL-5 melanoma): 3.1 µM
GI50 (SW-620 colon): 1.73 µM
TGI (SW-620 colon): 3.31 µM
GI50 (SK-MEL-2 melanoma): 1.91 µM
TGI (SK-MEL-2 melanoma): 3.73 µM
GI50 (SN12C renal): 4.5 µM
TGI (SN12C renal): 18.8 µM
GI50 (UACC-257 melanoma): 2.02 µM
TGI (UACC-257 melanoma): 4.37 µM
GI50 (UO-31 renal): 3.37 µM
TGI (UO-31 renal): 14.8 µM
GI50 (HL-60(TB) leukemia): 2.13 µM
TGI (HL-60(TB) leukemia): 4.75 µM
GI50 (CAKI-1 renal): 1.72 µM
TGI (CAKI-1 renal): 3.22 µM
GI50 (NCI-H460 lung): 1.83 µM
TGI (NCI-H460 lung): 3.47 µM
GI50 (NCI-H23 lung): 2.25 µM
TGI (NCI-H23 lung): 5.4 µM
GI50 (KM12 colon): 1.67 µM
TGI (KM12 colon): 3.35 µM
GI50 (SF-268 CNS): 2.41 µM
TGI (SF-268 CNS): 7.36 µM
GI50 (OVCAR-4 ovarian): 1.76 µM
TGI (OVCAR-4 ovarian): 4.03 µM
GI50 (SNB-75 CNS): 1.6 µM
TGI (SNB-75 CNS): 6.19 µM
GI50 (T-47D breast): 1.9 µM
TGI (T-47D breast): 4.92 µM
GI50 (SNB-19 CNS): 2.36 µM
TGI (SNB-19 CNS): 6.56 µM
GI50 (EKVX NSCLC): 4.69 µM
TGI (EKVX NSCLC): 19.7 µM
GI50 (SK-MEL-28 melanoma): 1.6 µM
TGI (SK-MEL-28 melanoma): 3.05 µM
GI50 (ACHN renal): 1.73 µM
TGI (ACHN renal): 3.19 µM
GI50 (CCRF-CEM leukemia): 2.93 µM
TGI (CCRF-CEM leukemia): 11.7 µM
GI50 (BT-549 breast): 2.69 µM
TGI (BT-549 breast): 9.4 µM
